Laboratory results taken from ChEMBL document CHEMBL4145533, “6,7-Dimorpholinoalkoxy quinazoline derivatives as potent EGFR inhibitors with enhanced antiproliferative activities against tumor cells” (Eur J Med Chem, 2018).

Key:
A-431 = assay: Antiproliferative activity against human A431 cells harboring wild type EGFR after 72 hrs by MTT assay; type: functional, cell-based; settings: A-431, 72 h
A549 [1] = assay: Antiproliferative activity against human A549 cells harboring wild type EGFR/K-ras mutant after 72 hrs by MTT assay; type: functional, cell-based; settings: A549, 72 h
HCC827 = assay: Antiproliferative activity against human HCC827 cells harboring EGFR E746-A750 del mutant after 72 hrs by MTT assay; type: functional, cell-based; settings: HCC827, 72 h
NCI-H1975 = assay: Antiproliferative activity against human NCI-H1975 cells harboring EGFR L858R/T790M double mutant after 72 hrs by MTT assay; type: functional, cell-based; settings: NCI-H1975, 72 h
SW480 = assay: Antiproliferative activity against human SW480 cells harboring wild type EGFR after 72 hrs by MTT assay; type: functional, cell-based; settings: SW480, 72 h
[2] = target: Epidermal growth factor receptor (Homo sapiens, UniProt P00533, L858R); assay: Inhibition of EGFR L858R mutant (unknown origin) using ULight-poly GT as substrate preincubated for 120 mins followed by substrate addition measured after 2 hrs by spectrophotometric method
Chain of Epidermal growth factor receptor (Homo sapiens, UniProt P00533, L858R) (P00533 25-1210 L858R limits assumed): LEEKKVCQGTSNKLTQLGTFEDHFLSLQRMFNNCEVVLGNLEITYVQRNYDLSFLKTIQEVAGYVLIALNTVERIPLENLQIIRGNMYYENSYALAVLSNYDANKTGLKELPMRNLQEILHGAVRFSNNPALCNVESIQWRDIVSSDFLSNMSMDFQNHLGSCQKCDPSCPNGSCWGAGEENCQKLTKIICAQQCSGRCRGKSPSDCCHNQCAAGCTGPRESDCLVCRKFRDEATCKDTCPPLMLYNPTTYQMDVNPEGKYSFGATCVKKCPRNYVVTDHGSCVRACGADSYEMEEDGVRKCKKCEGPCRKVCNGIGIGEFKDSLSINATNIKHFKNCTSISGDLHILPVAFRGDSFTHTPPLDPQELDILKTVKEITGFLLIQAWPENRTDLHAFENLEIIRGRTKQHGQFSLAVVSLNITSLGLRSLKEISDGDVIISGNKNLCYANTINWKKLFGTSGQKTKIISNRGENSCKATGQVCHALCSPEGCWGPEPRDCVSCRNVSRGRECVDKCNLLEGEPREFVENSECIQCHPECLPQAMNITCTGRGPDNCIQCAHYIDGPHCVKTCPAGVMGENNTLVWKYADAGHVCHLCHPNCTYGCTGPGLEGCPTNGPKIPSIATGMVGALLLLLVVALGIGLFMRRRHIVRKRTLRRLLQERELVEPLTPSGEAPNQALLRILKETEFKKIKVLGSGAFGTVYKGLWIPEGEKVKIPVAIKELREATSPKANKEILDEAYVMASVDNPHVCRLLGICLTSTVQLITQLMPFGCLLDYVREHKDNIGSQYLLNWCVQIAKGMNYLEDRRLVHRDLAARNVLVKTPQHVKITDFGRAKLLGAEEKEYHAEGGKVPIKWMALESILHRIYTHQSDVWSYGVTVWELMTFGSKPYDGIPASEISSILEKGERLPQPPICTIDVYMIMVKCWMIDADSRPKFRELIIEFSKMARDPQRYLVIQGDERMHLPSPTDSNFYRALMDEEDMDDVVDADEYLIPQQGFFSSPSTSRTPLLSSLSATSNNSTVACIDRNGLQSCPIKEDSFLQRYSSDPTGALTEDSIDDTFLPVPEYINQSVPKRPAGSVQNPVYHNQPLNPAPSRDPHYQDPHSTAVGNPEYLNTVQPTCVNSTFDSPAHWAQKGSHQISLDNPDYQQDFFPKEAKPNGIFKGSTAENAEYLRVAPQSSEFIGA

[3] = target: Epidermal growth factor receptor (Homo sapiens, UniProt P00533, L858R/T790M); assay: Inhibition of EGFR L858R/T790M double mutant (unknown origin) using ULight-poly GT as substrate preincubated for 30 mins followed by substrate addition measured after 1 hr by spectrophotometric method
Chain of Epidermal growth factor receptor (Homo sapiens, UniProt P00533, L858R/T790M) (P00533 25-1210 T790M/L858R limits assumed): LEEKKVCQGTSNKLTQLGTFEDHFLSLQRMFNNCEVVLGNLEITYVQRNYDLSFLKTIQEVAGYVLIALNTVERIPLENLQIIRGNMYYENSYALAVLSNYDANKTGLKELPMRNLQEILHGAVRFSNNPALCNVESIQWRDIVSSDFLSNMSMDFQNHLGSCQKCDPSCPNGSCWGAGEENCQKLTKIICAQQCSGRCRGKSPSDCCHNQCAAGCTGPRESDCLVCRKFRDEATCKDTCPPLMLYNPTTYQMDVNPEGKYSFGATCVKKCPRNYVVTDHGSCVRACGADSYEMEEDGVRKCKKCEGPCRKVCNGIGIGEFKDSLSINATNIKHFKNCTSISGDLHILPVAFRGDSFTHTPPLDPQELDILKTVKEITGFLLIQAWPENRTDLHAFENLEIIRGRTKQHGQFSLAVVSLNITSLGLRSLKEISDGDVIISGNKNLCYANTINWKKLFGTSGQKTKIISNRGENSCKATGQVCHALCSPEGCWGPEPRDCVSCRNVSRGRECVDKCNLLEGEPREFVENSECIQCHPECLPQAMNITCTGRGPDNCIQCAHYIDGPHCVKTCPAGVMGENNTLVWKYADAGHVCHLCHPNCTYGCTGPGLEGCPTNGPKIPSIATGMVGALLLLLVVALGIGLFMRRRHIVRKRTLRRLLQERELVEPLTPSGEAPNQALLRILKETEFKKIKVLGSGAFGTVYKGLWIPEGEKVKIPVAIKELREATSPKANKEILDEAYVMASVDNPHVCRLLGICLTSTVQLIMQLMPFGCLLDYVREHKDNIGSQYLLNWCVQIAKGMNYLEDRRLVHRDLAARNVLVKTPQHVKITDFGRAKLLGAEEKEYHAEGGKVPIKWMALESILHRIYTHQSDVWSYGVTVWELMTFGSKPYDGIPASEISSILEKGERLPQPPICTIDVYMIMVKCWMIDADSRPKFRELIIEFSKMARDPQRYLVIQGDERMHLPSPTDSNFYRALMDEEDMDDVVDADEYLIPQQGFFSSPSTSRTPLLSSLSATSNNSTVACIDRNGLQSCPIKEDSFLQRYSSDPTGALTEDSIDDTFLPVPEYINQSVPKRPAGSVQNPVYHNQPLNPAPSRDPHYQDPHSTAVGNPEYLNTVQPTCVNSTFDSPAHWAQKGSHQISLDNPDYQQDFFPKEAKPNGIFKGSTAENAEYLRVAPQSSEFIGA

[4] = target: Epidermal growth factor receptor (Homo sapiens, UniProt P00533, T790M); assay: Inhibition of EGFR T790M mutant (unknown origin) preincubated for 10 mins followed by TK substrate-botion addition measured after 1 hr by spectrophotometric method
Chain of Epidermal growth factor receptor (Homo sapiens, UniProt P00533, T790M) (P00533 25-1210 T790M limits assumed): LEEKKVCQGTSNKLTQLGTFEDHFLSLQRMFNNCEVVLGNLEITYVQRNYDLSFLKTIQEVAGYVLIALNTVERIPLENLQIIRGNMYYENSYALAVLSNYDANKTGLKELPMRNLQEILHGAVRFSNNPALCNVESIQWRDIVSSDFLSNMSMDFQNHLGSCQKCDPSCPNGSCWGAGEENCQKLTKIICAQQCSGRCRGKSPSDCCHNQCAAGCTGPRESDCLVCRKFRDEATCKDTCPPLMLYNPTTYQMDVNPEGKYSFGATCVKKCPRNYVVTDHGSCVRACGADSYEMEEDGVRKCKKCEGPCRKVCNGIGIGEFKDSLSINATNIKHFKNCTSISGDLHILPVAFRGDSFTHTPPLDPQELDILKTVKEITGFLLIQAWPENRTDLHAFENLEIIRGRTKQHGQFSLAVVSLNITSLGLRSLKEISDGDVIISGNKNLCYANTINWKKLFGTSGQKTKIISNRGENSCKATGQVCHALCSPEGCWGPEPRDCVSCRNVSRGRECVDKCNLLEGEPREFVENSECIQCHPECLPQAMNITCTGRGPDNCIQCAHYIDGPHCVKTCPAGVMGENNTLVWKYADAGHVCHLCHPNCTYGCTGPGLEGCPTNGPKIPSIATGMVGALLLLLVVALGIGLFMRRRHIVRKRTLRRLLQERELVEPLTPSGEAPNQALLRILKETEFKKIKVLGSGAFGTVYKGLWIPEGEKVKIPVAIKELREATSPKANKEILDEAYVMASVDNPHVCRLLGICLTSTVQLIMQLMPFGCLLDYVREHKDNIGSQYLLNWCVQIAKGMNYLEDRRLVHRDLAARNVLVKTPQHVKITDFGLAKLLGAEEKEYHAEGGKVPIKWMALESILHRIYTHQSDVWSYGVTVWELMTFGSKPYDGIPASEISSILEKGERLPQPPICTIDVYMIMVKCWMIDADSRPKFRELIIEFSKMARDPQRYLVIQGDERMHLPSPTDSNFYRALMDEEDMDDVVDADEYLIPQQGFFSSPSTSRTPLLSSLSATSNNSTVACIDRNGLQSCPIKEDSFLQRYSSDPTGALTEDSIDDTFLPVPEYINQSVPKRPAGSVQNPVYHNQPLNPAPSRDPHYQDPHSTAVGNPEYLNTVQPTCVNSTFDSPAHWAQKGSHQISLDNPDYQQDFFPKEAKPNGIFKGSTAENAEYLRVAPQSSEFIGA

A549 [5] = assay: Induction of apoptosis in human A549 cells assessed as viable cells at 15 uM after 48 hrs by Annexin V-FITC/propidium iodide satining based FACS analysis (reference value: 95.87%); type: functional; settings: A549, 48 h, read-out: Activity
A549 [6] = assay: Induction of apoptosis in human A549 cells assessed as early apoptotic cells at 15 uM after 48 hrs by Annexin V-FITC/propidium iodide satining based FACS analysis (reference value: 2.78%); type: functional
A549 [7] = assay: Induction of apoptosis in human A549 cells assessed as late apoptotic cells at 15 uM after 48 hrs by Annexin V-FITC/propidium iodide satining based FACS analysis (reference value: 1.21%); type: functional
A549 [8] = assay: Induction of apoptosis in human A549 cells assessed as necrotic cells at 15 uM after 48 hrs by Annexin V-FITC/propidium iodide satining based FACS analysis (reference value: 0.14%); type: functional
A549 [9] = assay: Cell cycle arrest in human A549 cells assessed as accumulation at G0/G1 phase at 15 uM after 48 hrs by propidium iodide satining based FACS analysis (reference value: 48.87%); type: functional
A549 [10] = assay: Cell cycle arrest in human A549 cells assessed as accumulation at S phase at 15 uM after 48 hrs by propidium iodide satining based FACS analysis (reference value: 34.45%); type: functional

Row | Structure (SMILES) | IC50 (A-431) [µM] | IC50 (A549 [1]) [µM] | IC50 (HCC827) [µM] | IC50 (NCI-H1975) [µM] | IC50 (SW480) [µM] | IC50 [2] [µM] | IC50 [3] [µM] | IC50 [4] [µM] | viability at 15 µM (A549 [5]) [%] | Activity (A549 [6]) [%] | Activity (A549 [7]) [%] | Activity (A549 [8]) [%] | Activity (A549 [9]) [%] | Activity (A549 [10]) [%]
1 | C#Cc1cccc(Nc2ncnc3cc(OCCN4CCOCC4)c(OCCN4CCOCC4)cc23)c1 | 5.41 | 11.5 | 0.05 | 23.1 | 20.8 | – | – | – | – | – | – | – | – | –
2 | C/C=C/c1ccc(Nc2ncnc3cc(OCCN4CCOCC4)c(OCCN4CCOCC4)cc23)cc1 | 10.1 | 14.1 | 1.86 | 89.3 | 29.2 | – | – | – | – | – | – | – | – | –
3 | Fc1cccc(COc2ccc(Nc3ncnc4cc(OCCN5CCOCC5)c(OCCN5CCOCC5)cc34)cc2Cl)c1 | 3.62 | 5.81 | 0.32 | 12.2 | 8.82 | – | – | – | – | – | – | – | – | –
4 | Fc1ccc(Nc2ncnc3cc(OCCN4CCOCC4)c(OCCN4CCOCC4)cc23)cc1Cl | 10.4 | 7.91 | 0.05 | 20.4 | 16.6 | – | – | – | – | – | – | – | – | –
5 | C#Cc1cccc(Nc2ncnc3cc(OCCCN4CCOCC4)c(OCCCN4CCOCC4)cc23)c1 | 1.56 | 3.97 | 0.0066 | 3.1 | 5.39 | – | – | – | – | – | – | – | – | –

Continued, in another order:

Row | IC50 (A-431) [µM] | IC50 (A549 [1]) [µM] | IC50 (HCC827) [µM] | IC50 (NCI-H1975) [µM] | IC50 (SW480) [µM] | IC50 [2] [µM] | IC50 [3] [µM] | IC50 [4] [µM] | Structure (SMILES) | viability at 15 µM (A549 [5]) [%] | Activity (A549 [6]) [%] | Activity (A549 [7]) [%] | Activity (A549 [8]) [%] | Activity (A549 [9]) [%] | Activity (A549 [10]) [%]
6 | 2.01 | 3.03 | 0.0078 | 4.45 | 3.54 | – | – | – | Fc1ccc(Nc2ncnc3cc(OCCCN4CCOCC4)c(OCCCN4CCOCC4)cc23)cc1Cl | – | – | – | – | – | –
7 | 1.35 | 8.83 | 0.29 | 5.53 | 6.08 | 0.235 | > 2 | > 1 | C/C=C/c1ccc(Nc2ncnc3cc(OCCCN4CCOCC4)c(OCCCN4CCOCC4)cc23)cc1 | – | – | – | – | – | –
8 | 4.8 | 14.9 | 0.6 | 12.7 | 12.6 | – | – | – | CS(=O)(=O)CCNCc1ccc(-c2ccc3ncnc(Nc4ccc(OCc5cccc(F)c5)c(Cl)c4)c3c2)o1 [LAPATINIB] | 87.7 | 4.56 | 6.27 | 1.5 | 67.5 | 23.89
